Results as given in patent publication US11332716B2, “Methods and compositions for producing pancreatic beta cells” (The Regents of the University of California, priority 2015, dated 2022).

What was measured:
[1] = system: pancreatic endodermal progenitor (cPE) cells; test: Protocol 2 maturation of cPE cells into cPB cells (INSULIN mRNA, C-peptide cells)
[2] = system: pancreatic endodermal progenitor cells (cPE cells); test: Maturation of cPE cells into C-peptide positive cells, chemical screen; details: added individually to basal pancreatic differentiation media
[3] = system: MEL1 INS GFP/W hESC spheres; test: hESC suspension differentiation, qPCR of NGN3 and NKX2.2 at day 8; format: cell-based, human; details: compared to RCN condition / during RCN or R treatment
Method: FIGS. 16A-16D. Published protocols result in precocious endocrine differentiation by NEUROG3 activation. FIGS. 16A-C: Analysis of key pancreatic progenitor markers in clusters differentiated as outlined in FIG. 15A. R=Retinoic acid, C=Cyclopamine, N=Noggin, E=Epidermal growth factor, K=Keratinocyte growth factor, T=TBP, and A=ALK inhibitor. Data shown are representative of two independent experiments. FIG. 16A: PDX1, INS, GCG, NEUROG3, and NKX6.1 protein expression was assessed by whole mount staining of differentiated clusters at indicated time points. Note precocious expression of the endocrine marker NEUROG3 in the absence of NKX6.1 protein at days 6-9. FIGS. 16B and 16C: Flow cytometric quantification of PDX1^+ (orange gate), PDX1^+/NKX6.1^+ (blue gate), INS^+/NKX6.1^+ (green gate), and INS^+/NKX6.1^− (red gate) cells at indicated time points. […]
Total RNA was isolated with TRIZOL (Sigma) or micro/mini RNAeasy kit (Qiagen) and reverse transcribed using the iScript cDNA Kit (Bio-Rad) according to manufacturer's instructions. qPCR analysis was performed on an ABI 7900 HT Fast Real-Time PCR System (Applied Biosystems) and CFX Connect Real Time System (Biorad) using standard protocols. […] P-values were calculated using a two-tailed student's t-test. […]

[4] = system: PDX1+/NKX6.1+ pancreatic progenitor cells; test: Direct differentiation of PDX1+/NKX6.1+ progenitors to pancreatic beta cells; format: cell-based, human; details: alone; does not maintain any progenitor expression
Method: Variations on the direct differentiation method disclosed herein (see, e.g., Examples 13 and 17) were also developed that yielded efficient and cost-effective production of functional pancreatic beta cells from pluripotent stem cells. Illustrated schematically in FIG. 24, one method according to the disclosure provides embryonic stem cells (e.g., human embryonic stem cells) that were exposed to retinoic acid and incubated for a sufficient time to see expression of PDX1. During this time, the cells were not exposed to bone morphogenetic protein (BMP), which can lead to precocious endocrine differentiation and, ultimately, the production of non-functional polyhormonal cells. PDX1^+ cells were then exposed to 50 ng/ml epidermal growth factor (EGF) and 50 ng/ml keratinocyte growth factor (KGF or K) in DMEM basal media containing IX GLUTAMAX™ (Invitrogen), IX non-essential amino acids (Invitrogen) and serum-free IX B27supplement (Life Technologies) for an extended period of 24-48 hours under the culture conditions disclosed herein. The extended incubation of pancreatic progenitor PDX1^+ cells in the absence of BMP led to the efficient production of […] pancreatic progenitor cells. The PDX1^+NKX6.1^+cells were then incubated in an optimized combination of growth factors to induce NGN3 expression while maintaining expression of PD1 and NKX6.1. […]

For `O=C1O[C@H]([C@@H](O)CO)C(O)=C1O` [Vitamin C], the “number of C-peptide positive cells co-expressing PDX1 and NKX6.1” value [1] was “increased”, the “expression of the INSULIN gene (mRNA)” value ([1]; day 21, compared to DMSO controls) was “promoted expression” and the “percentage of C-peptide positive cells, individual supplementation” value [2] was “effective in increasing”. For the same molecule, the “NEUROG3 (NGN3) and NKX2.2 mRNA transcripts” value [3] was “did not significantly lower”.
With `C[C@H](NC(=O)Cc1cc(F)cc(F)c1)C(=O)N[C@@H]1C(=O)N(C)c2ccccc2-c2ccccc21` [gamma secretase inhibitor XX] the endocrine differentiation [4] was “induces endocrine differentiation efficiently”.
